Data published in patent US6511963B1 (priority 1992, dated 2003).
“And” between values parts separate entries of the source, which are not always exact repeats. Identical values can stand only once. Like-named read-outs stand apart in the source and are kept apart here. Ends that are not written are not given here. Peptide text beside a SMILES is read from it.

Key:
[1] = target: NMDA receptor; set-up: species or system rat; conditions: read-out: EC50 of Gly, [3H]MK-801 binding
[2] = test system: NMDA receptor; type: binding, rat
[3] = target: T1, NMDA receptor (Rattus norvegicus, UniProt P35439+Q00960); experiment: biochemical; type: binding
T1 construct: other: test compound in the absence of spermine; concentration at 50% of maximum stimulation; % Sti; spermine = 100; other: with and without spermine; absence of spermine; % STI; absence
T1 sequence (Q00960 27-1482, other chains not shown): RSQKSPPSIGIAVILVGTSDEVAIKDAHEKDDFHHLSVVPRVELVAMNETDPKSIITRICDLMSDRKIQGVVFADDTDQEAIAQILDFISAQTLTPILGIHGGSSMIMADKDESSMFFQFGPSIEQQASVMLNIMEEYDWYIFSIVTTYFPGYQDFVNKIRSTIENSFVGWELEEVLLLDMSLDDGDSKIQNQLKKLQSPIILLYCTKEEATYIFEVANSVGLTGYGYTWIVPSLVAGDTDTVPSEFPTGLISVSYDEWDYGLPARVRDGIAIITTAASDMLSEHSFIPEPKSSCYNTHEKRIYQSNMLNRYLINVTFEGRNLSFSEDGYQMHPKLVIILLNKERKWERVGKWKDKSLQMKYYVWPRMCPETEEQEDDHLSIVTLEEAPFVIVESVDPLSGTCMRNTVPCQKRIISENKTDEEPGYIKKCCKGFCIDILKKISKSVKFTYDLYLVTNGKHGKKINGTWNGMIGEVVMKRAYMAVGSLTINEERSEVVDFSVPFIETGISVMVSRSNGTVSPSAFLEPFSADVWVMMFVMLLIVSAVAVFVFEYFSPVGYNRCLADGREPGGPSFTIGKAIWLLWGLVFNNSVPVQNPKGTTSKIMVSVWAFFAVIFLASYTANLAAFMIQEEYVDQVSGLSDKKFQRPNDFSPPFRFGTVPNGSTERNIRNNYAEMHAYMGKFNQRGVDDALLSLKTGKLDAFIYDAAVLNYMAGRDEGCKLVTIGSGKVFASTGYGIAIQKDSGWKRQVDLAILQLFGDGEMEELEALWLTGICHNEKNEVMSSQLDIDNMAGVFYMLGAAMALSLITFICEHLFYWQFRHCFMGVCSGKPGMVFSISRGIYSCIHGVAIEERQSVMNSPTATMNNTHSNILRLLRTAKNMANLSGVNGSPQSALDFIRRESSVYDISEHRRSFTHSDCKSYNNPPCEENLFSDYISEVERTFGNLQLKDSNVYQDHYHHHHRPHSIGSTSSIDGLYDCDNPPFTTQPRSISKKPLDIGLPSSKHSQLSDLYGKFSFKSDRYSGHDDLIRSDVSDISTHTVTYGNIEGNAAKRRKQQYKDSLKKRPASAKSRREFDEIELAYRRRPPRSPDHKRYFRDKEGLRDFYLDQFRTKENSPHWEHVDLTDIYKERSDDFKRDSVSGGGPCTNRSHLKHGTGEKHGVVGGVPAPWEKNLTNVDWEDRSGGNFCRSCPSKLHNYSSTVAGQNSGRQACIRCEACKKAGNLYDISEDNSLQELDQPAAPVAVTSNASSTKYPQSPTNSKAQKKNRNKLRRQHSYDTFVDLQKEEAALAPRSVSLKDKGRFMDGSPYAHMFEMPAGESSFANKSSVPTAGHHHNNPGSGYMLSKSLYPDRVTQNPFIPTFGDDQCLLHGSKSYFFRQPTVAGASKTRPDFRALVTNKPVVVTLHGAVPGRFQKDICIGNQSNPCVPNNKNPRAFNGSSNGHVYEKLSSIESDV

Molecule	% Inh [2] [%]	% Sti [3] [%]	other results
NCC(=O)O [Gly, glycine]			EC50 [1]: 56 nM and 58 nM
CC[C@H](C)[C@H](NC(=O)[C@H](CC(C)C)NC(=O)[C@H](CCC(=O)O)NC(=O)[C@H](CCC(N)=O)NC(=O)[C@H](CC(N)=O)NC(=O)[C@H](CCC(=O)O)NC(=O)[C@H](CCC(N)=O)NC(=O)[C@H](CC(C)C)NC(=O)[C@H](CCC(=O)O)NC(=O)[C@H](CCC(=O)O)NC(=O)[C@H](CCC(=O)O)NC(=O)CNC(=O)[C@@H](N)Cc1ccc(O)cc1)C(=O)N[C@@H](CCCNC(=N)N)C(=O)N[C@@H](CCC(=O)O)C(=O)N[C@@H](CCCCN)C(=O)N[C@@H](CO)C(=O)N[C@@H](CC(N)=O)C(N)=O [Tyr^o-Glu3,4,7,10,14-Con-G]	0		inhibition of spermine-induced [3H]MK-801 binding [2]: no inhibition; stimulation of [3H]MK-801 binding in the absence of spermine [3]: stimulated; Emax ([3]; read-out: % Sti): 31%
CC[C@H](C)[C@H](NC(=O)[C@H](CC(C)C)NC(=O)[C@H](C)NC(=O)[C@H](CC(C)C)NC(=O)[C@H](C)NC(=O)[C@H](C)NC(=O)[C@H](CCC(N)=O)NC(=O)[C@H](CC(C)C)NC(=O)[C@H](CC(C(=O)O)C(=O)O)NC(=O)[C@H](CC(C(=O)O)C(=O)O)NC(=O)[C@H](CCC(=O)O)NC(=O)CN)C(=O)N[C@@H](CCCNC(=N)N)C(=O)N[C@@H](C)C(=O)N[C@@H](CCCCN)C(=O)N[C@@H](CO)C(=O)N[C@@H](CC(N)=O)C(N)=O [alpha helix ConG, GEggLQAALALJRAKSN] (HELM PEPTIDE1{G.E.[O=C(O)C(C[C@H](N[*:1])C(=O)[*:2])C(=O)O].[O=C(O)C(C[C@H](N[*:1])C(=O)[*:2])C(=O)O].L.Q.A.A.L.A.L.I.R.A.K.S.N.[am]}$$$$V2.0)	100		IC50 ([2]; read-out: Spermine IC): 1500 nM; Emax ([3]; read-out: % Sti): 0%
CC[C@H](C)[C@H](NC(=O)[C@H](CC(C)C)NC(=O)[C@H](CC(C(=O)O)C(=O)O)NC(=O)[C@H](CCC(N)=O)NC(=O)[C@H](CC(N)=O)NC(=O)[C@H](Cc1cc(I)c(O)c(I)c1)NC(=O)[C@H](CCC(N)=O)NC(=O)[C@H](CC(C)C)NC(=O)[C@H](CC(C(=O)O)C(=O)O)NC(=O)[C@H](CC(C(=O)O)C(=O)O)NC(=O)[C@H](CCC(=O)O)NC(=O)CN)C(=O)N[C@@H](CCCNC(=N)N)C(=O)N[C@@H](CC(C(=O)O)C(=O)O)C(=O)N[C@@H](CCCCN)C(=O)N[C@@H](CO)C(=O)N[C@@H](CC(N)=O)C(N)=O [di-iodo-Tyr7-Con-G, GEggLQY(JI)NQgLIRgKSN]	100		IC50 ([2]; read-out: Spermine IC): 500 nM; Emax ([3]; read-out: % Sti): 0%
Ac-GEggLQgNQgLIRgKSN [Ac-Con-G]	0	0	activity, inhibitory or stimulatory [3]: no apparent activity
EEELQENQELIREKSN-NH2 [Glu3,4,7,10-Con-G(2-17)]	70		% INH [2]: 70%; IC50 ([2]; read-out: IC50): 5400 nM; IC50 ([2]; read-out: Spermine IC): 5400 nM; Emax ([3]; read-out: % STI): 33%; Emax ([3]; read-out: % Sti): 33%
F(pC1)-GEggLQgNQgLIRgKSN (FGEXXLQXNQXLIRXKSN; N-terminal p-chloro-Phe; gamma-carboxyglutamate residues) [Phe(pCl)^o-Con-G]	0	0	
GEYgLQgNQgLIRgKSN [Tyr3-Con-G]	0	0	
GEgALQgNQgLJRgKSN (GEXALQXNQXLIRXKSN; gamma-carboxyglutamate residues) [Ala4-Con-G]	0	0	
GEgELQgNQgLJRgKSN (GEXELQXNQXLIRXKSN; gamma-carboxyglutamate residues) [Glu4-Con-G]	0	0	
GEgS(p)LQgNQgLIRgKSN (GEXSLQXNQXLIRXKSN; phosphoserine) [Ser(p)4-Con-G]	0	0	
GEgSLQgNQgLJRgKSN [Ser4-Con-G]	0	0	
GEggLQgNQgLIRgKSN-OH [Con-G-OH]	0	0	activity, inhibitory or stimulatory [3]: no activity
QELIREKSN [Glul0,14-Con-G(9-17)]	0	0	
QENQELIREKSN [Glu 7,10,14-Con-G (6-17)]	0	0	
Y(oMe)-GEggLQgNQgLIRgKSN (YGEXXLQXNQXLIRXKSN; O-methyl tyrosine) [Tyr(oMe)^o-Con-G]	0	0	
Y(p)-GEggLQgNQgLIRgKSN (YGEXXLQXNQXLIRXKSN; phosphotyrosine) [Tyr(p)^o-Con-G]	0	0	
Y-GEggLQgNQgLIRgKSN [Tyr^o-Con-G]	0	0	
